Test results as given in PMC10614203, “Synthesis, Structure–Activity Relationships, Radiofluorination, and Biological Evaluation of [^18F]RM365, a Novel Radioligand for Imaging the Human Cannabinoid Receptor Type 2 (CB2R) in the Brain with PET” (Journal of Medicinal Chemistry, 2023).
Where two headings read alike, the source gives them in different places.

Biological target: T1, hCB2R(D80N) (Homo sapiens, UniProt P34972, D80N)
T1 construct: expressed in transfected cells; host or cells: neurons of the right striatum of male Wistar rats, transduced in vivo with the AAV2/7-CaMKII0.4-intron-hCB2R(D80N) vector
Assay type: in vivo
Settings: for reduction of the normalized AUC between 20 and 60 min p.i.: GW405833 i.v. 20 min after radioligand
From the text: In a proof-of-concept study, the specific binding to the human CB2R and the ability to cross the blood–brain barrier of [^18F]RM365 in vivo was investigated by PET imaging experiments using an established rat model with a local overexpression of hCB2R(D80N) in the right striatum (target region).[32],[66] Exemplary images of the averaged time frames of the PET study, as well as the TACs of the target region and both reference regions on the contralateral site and the cerebellum, are shown in Figure 10. […] However, the TAC peak value was four to five times lower in the reference regions, which was reflected by the seven to eight times lower accumulated activity over time expressed as the area under the curve (AUC) of [^18F]RM365 (Table 3). The high signal-to-background ratio is reflected by a SUVr of 15 ± 5 and 20 ± 5 for the target region-to-contralateral and -cerebellum ratios, respectively, at 60 min p.i. […] Additionally, we investigated the reversibility of the binding toward the human CB2R receptor in vivo in displacement studies by administering the CB2R-specific agonist GW405833 into the tail vein 20 min after the radioligand injection into the hCB2R(D80N)-overexpressing rat model (Figure 10B, Table 3). […] The signal in the contralateral side (p-value = 0.1621, two-way ANOVA) and in the cerebellum (p-value = 0.6177, two-way ANOVA) was not affected by the treatment over time with GW405833 (Figure S6), underlining the eligibility of these reference regions.
In vivo biodistribution studies of [^18F]RM365 were performed in female CD-1 mice (n = 4, 31 ± 3 g) and female Wistar rats (n = 4, 150 ± 11 g). For the uptake studies into the brain, male Wistar rats carrying the stereotactically injected AAV2/7-CaMKII0.4-intron-hCB2R(D80N) (right striatum) and AAV2/7-CaMKII0.4-intron-3flag-eGFP (control/contralateral, left striatum) were used (n = 6; bodyweights were 260 ± 11 g). Data were assessed by dynamic small animal PET (Nanoscan, Mediso, Budapest, Hungary) in 60 min recordings, followed by T1-weighted (GRE, TR/TE = 15.0/2.4 ms, 252/252, FA = 25°) MR imaging with whole-body coils for anatomical correlation and attenuation correction.
The PET scans were performed 3−4 months after the stereotactic injections. Animals were initially anesthetized with 5% isoflurane and placed on a thermostatically heated animal bed, where anesthesia was maintained with 2% isoflurane in 60% oxygen/38% room air. […] Nonparametric (semiquantitative) analysis of achieved time–activity curves (TACs) was performed with Microsoft Excel to determine the time to peak, the TAC peak value, and the area under the curve (AUC) [drawing 1] where c (radioactivity) is expressed as the standardized uptake value normalized to the bodyweight in g (SUV). […]

[1] = male, Wistar, rat, in vivo, 60 min

T1 sequence (P34972 whole entry D80N): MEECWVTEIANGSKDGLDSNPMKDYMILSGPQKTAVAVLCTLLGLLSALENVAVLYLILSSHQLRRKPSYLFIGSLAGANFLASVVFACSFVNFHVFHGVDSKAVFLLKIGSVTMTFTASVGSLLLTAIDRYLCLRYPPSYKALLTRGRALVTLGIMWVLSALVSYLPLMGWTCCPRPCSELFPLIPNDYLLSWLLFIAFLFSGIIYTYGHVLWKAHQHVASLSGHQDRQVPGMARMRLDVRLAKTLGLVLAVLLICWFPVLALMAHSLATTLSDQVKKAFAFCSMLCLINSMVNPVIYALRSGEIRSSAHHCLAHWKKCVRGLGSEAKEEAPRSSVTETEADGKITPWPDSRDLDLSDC

reduction of the normalized AUC between 20 and 60 min p.i. (cerebellum as reference region): 70%
reduction of the normalized AUC between 20 and 60 min p.i. (contralateral site as reference region): 64%
SUVr target region-to-cerebellum [1]: 20 ± 5
SUVr target region-to-contralateral [1]: 15 ± 5
SMILES: CC1(C)Cc2ccc(C#N)cc2[C@@H]1NC(=O)c1cc2cc([18F])ccc2[nH]1 [[^18F]RM365]
